The text below walks through data of the supplement of paper PMC12137928.

Assay [1] has as its system HCT116. The settings on record: 72 h. Put shortly:
(§1)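 IC50 and maximal efficacy were derived from four-parameter Hill curve fits. The underlying CellTiter-Glo luminescence was scaled so that vehicle equals 0% and positive control equals -100%, and was then pattern-corrected. HCT116 cells had been seeded in 1536-well plates at 250 per well.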

Assay [2] has as its system HCT116. Description: efficacy (maximum % inhibition of viability vs DMSO); higher = more cytotoxic. The settings on record: 72 h. Summed up:
as §1

SMILES strings stand for the structures. Structures can show the parent of a compound that is named as a salt. Some results are limits rather than exact numbers.

Turning to `N#CC[C@H](C1CCCC1)n1cc(-c2ncnc3[nH]ccc23)cn1` [Ruxolitinib], the IC50 cell viability with HCT116 [1] (ICRF193 0 nM) and with HCT116 [1] (ICRF193 200 nM) was 29.1 µM each time. The efficacy with HCT116 [2] (ICRF193 0 nM) came to 85.9%; in the assay with HCT116 [2] (ICRF193 200 nM), 88.8%.
As to `CC[C@@H](C(=O)[C@@H](C)[C@@H](O)[C@H](C)[C@@H]1O[C@@H]([C@@H](CC)C(=O)O)CC[C@@H]1C)[C@H]1O[C@]2(C=C[C@@H](O)[C@]3(CC[C@@](C)([C@H]4CC[C@](O)(CC)[C@H](C)O4)O3)O2)[C@H](C)C[C@@H]1C` [SALINOMYCIN, SODIUM], the IC50 cell viability in the assay on HCT116 [1] (ICRF193 0 nM) worked out at 2.31 µM; in the assay with HCT116 [1] (ICRF193 200 nM), 1.3 µM. For the same compound, the efficacy stood at 104% in the assay with HCT116 [2] (ICRF193 0 nM) and 100% in the assay on HCT116 [2] (ICRF193 200 nM).
In the same order, the values of `CO[C@H]1C[C@H](O[C@@H]2/C(C)=C/C[C@@H]3C[C@@H](C[C@]4(CC[C@H](C)[C@@H](C5CCCCC5)O4)O3)OC(=O)[C@@H]3C=C(C)/C(=N/O)[C@H]4OC/C(=C\C=C\[C@@H]2C)[C@]43O)O[C@@H](C)[C@@H]1O` [SELAMECTIN] are 29.1 µM, 20.6 µM, 99.6% and 109%.
Consider `OCc1cc(C(O)CNCCCCCCOCCCCc2ccccc2)ccc1O` (configuration not stated) [Salmeterol xinafoate], for which the IC50 cell viability in the assay on HCT116 [1] (ICRF193 0 nM) and in the assay on HCT116 [1] (ICRF193 200 nM) was 23.1 µM each time. Moreover, the efficacy with HCT116 [2] (ICRF193 0 nM) worked out at 108%; in the assay with HCT116 [2] (ICRF193 200 nM), 110%.
Consider `C[n+]1cc2c3c(ccc2c2ccc4cc5c(cc4c21)OCO5)OCO3` [Sanguinarine], for which the figures for the IC50 cell viability in the assay with HCT116 [1] (ICRF193 0 nM) and in the assay on HCT116 [1] (ICRF193 200 nM) were 2.83 µM and 2.53 µM, respectively. Further, the efficacy in the assay with HCT116 [2] (ICRF193 0 nM) was 98.2%; with HCT116 [2] (ICRF193 200 nM), 91.6%.
On to `CC(C)(C)NC(=O)[C@@H]1C[C@@H]2CCCC[C@@H]2CN1C[C@@H](O)[C@H](Cc1ccccc1)NC(=O)[C@H](CC(N)=O)NC(=O)c1ccc2ccccc2n1` [Saquinavir], for which the IC50 cell viability in the assay on HCT116 [1] (ICRF193 0 nM) came out at 29.1 µM; with HCT116 [1] (ICRF193 200 nM), 20.6 µM. In addition, the efficacy in the assay on HCT116 [2] (ICRF193 0 nM) was 84.1%; with HCT116 [2] (ICRF193 200 nM), 108%.
For `O=C1NCCN1CCN1CCC(c2cn(-c3ccc(F)cc3)c3ccc(Cl)cc23)CC1` [Sertindole], the IC50 cell viability was found to be 16.4 µM with HCT116 [1] (ICRF193 0 nM) and 23.1 µM with HCT116 [1] (ICRF193 200 nM). The efficacy is 105% with HCT116 [2] (ICRF193 0 nM) and 117% with HCT116 [2] (ICRF193 200 nM).
For the compound `CN[C@H]1CC[C@@H](c2ccc(Cl)c(Cl)c2)c2ccccc21` [Sertraline hydrochloride], the IC50 cell viability with HCT116 [1] (ICRF193 0 nM) and in the assay with HCT116 [1] (ICRF193 200 nM) was 18.3 µM in each case. For the same compound, the values for the efficacy in the assay on HCT116 [2] (ICRF193 0 nM) and in the assay with HCT116 [2] (ICRF193 200 nM) were 95.4% and 97.5%, respectively.
Turning to `CN1CCC2=C(C1)c1ccccc1Cc1ccccc12` [Setiptiline], the IC50 cell viability with HCT116 [1] (ICRF193 0 nM) is 20.6 µM; in the assay with HCT116 [1] (ICRF193 200 nM) it was greater than 45.8 µM. The compound further returned an efficacy in the assay on HCT116 [2] (ICRF193 0 nM) of 44.1%.
For the compound `CO[C@H]1C[C@@H]2CC[C@@H](C)[C@@](O)(O2)C(=O)C(=O)N2CCCC[C@H]2C(=O)O[C@H]([C@H](C)C[C@@H]2CC[C@@H](O)[C@H](OC)C2)CC(=O)[C@H](C)/C=C(\C)[C@@H](O)[C@@H](OC)C(=O)[C@H](C)C[C@H](C)/C=C/C=C/C=C/1C` [Sirolimus], the IC50 cell viability came out at 20.6 µM in the assay with HCT116 [1] (ICRF193 0 nM) and 29.1 µM with HCT116 [1] (ICRF193 200 nM). Also, the efficacy came to 91.7% with HCT116 [2] (ICRF193 0 nM) and 88.6% with HCT116 [2] (ICRF193 200 nM).
Take `CC(C)=CCOc1ccc(/C=C/C(=O)c2ccc(OCC=C(C)C)cc2OCC(=O)O)cc1` [Sofalcone]: the IC50 cell viability in the assay with HCT116 [1] (ICRF193 0 nM) is 29.1 µM; in the assay with HCT116 [1] (ICRF193 200 nM) it was greater than 45.8 µM. In the assay on HCT116 [2] (ICRF193 0 nM), the efficacy came to 108%.
Take `Cc1c(C(=O)Nc2ccc(N3C[C@@H](C)O[C@@H](C)C3)nc2)cccc1-c1ccc(OC(F)(F)F)cc1` [Sonidegib]: the IC50 cell viability turned out to be 10.3 µM with HCT116 [1] (ICRF193 0 nM) and 13 µM in the assay on HCT116 [1] (ICRF193 200 nM). Besides, the efficacy in the assay on HCT116 [2] (ICRF193 0 nM) turned out to be 42.7%; in the assay on HCT116 [2] (ICRF193 200 nM) it was 60.5%.
For the compound `CNC(=O)c1cc(Oc2ccc(NC(=O)Nc3ccc(Cl)c(C(F)(F)F)c3)cc2)ccn1` [Sorafenib], the values for the IC50 cell viability in the assay with HCT116 [1] (ICRF193 0 nM) and in the assay with HCT116 [1] (ICRF193 200 nM) were 20.6 µM and 29.1 µM, respectively. The efficacy in the assay on HCT116 [2] (ICRF193 0 nM) came to 113%; in the assay on HCT116 [2] (ICRF193 200 nM) it was 52.1%.
In the same order, the values of `O=C1CSC2(CCN(CCCN3c4ccccc4Sc4ccc(Cl)cc43)CC2)N1` [Spiclomazine hydrochloride] are 20.6 µM, 23.1 µM, 81.3% and 82.5%.
For `CC(=O)S[C@@H]1CC2=CC(=O)CC[C@]2(C)[C@H]2CC[C@@]3(C)[C@@H](CC[C@@]34CCC(=O)O4)[C@H]12` [Spironolactone], in that order: 16.4 µM, 20.6 µM, 50.9% and 73.6%.
Turning to `OC[C@H]1O[C@H](O[C@]2(CCl)O[C@H](CCl)[C@@H](O)[C@@H]2O)[C@H](O)[C@@H](O)[C@H]1Cl` [Sucralose], the IC50 cell viability was greater than 45.8 µM with HCT116 [1] (ICRF193 0 nM) and 6.51 µM with HCT116 [1] (ICRF193 200 nM). The compound further registered an efficacy in the assay with HCT116 [2] (ICRF193 200 nM) of 44.6%.
For the compound `Clc1ccc(CSC(Cn2ccnc2)c2ccc(Cl)cc2Cl)cc1` (configuration not stated) [Sulconazole nitrate], the IC50 cell viability came to 29.1 µM with HCT116 [1] (ICRF193 0 nM) and 18.3 µM in the assay with HCT116 [1] (ICRF193 200 nM). For the same compound, the results for the efficacy in the assay with HCT116 [2] (ICRF193 0 nM) and in the assay with HCT116 [2] (ICRF193 200 nM) were 89.6% and 76.4%, respectively.
In the same order, the values of `CCN(CC)CCNC(=O)c1c(C)[nH]c(/C=C2\C(=O)Nc3ccc(F)cc32)c1C` [Sunitinib malate] are 18.3 µM, 16.4 µM, 108% and 111%.
Take `CCCCC1(COC(=O)CCC(=O)O)C(=O)N(c2ccccc2)N(c2ccccc2)C1=O` [Suxibuzone]: the IC50 cell viability in the assay on HCT116 [1] (ICRF193 0 nM) was greater than 45.8 µM; in the assay with HCT116 [1] (ICRF193 200 nM), 25.9 µM. The efficacy in the assay with HCT116 [2] (ICRF193 200 nM) came to 58.2%.
For the compound `CCOC(=O)Oc1c(OC)cc(C(=O)O[C@@H]2C[C@@H]3CN4CCc5c([nH]c6cc(OC)ccc56)[C@H]4C[C@@H]3[C@H](C(=O)OC)[C@H]2OC)cc1OC` [Syrosingopine], the results for the IC50 cell viability in the assay on HCT116 [1] (ICRF193 0 nM) and in the assay with HCT116 [1] (ICRF193 200 nM) were 29.1 µM and 16.4 µM, respectively. Also, the efficacy in the assay on HCT116 [2] (ICRF193 0 nM) turned out to be 112%; in the assay on HCT116 [2] (ICRF193 200 nM) it was 101%.
As for `CCO/N=C(\C(=O)N[C@@H]1C(=O)N2C(C(=O)[O-])=C(Sc3nc(-c4cc[n+](C)cc4)cs3)CS[C@H]12)c1nsc(NP(=O)(O)O)n1` [TAK-599], the IC50 cell viability in the assay with HCT116 [1] (ICRF193 0 nM) was determined as 25.9 µM; with HCT116 [1] (ICRF193 200 nM), 29.1 µM. Further, the figures for the efficacy in the assay on HCT116 [2] (ICRF193 0 nM) and with HCT116 [2] (ICRF193 200 nM) were 57.6% and 76.4%, respectively.
For `CN1CCN(CC/C=C2/c3ccccc3Sc3ccc(S(=O)(=O)N(C)C)cc32)CC1` [THIOTHIXENE], in that order: 20.6 µM, 20.6 µM, 112% and 126%.
Regarding `Cc1cc(-n2c(=O)[nH]c(=O)n(C)c2=O)ccc1Oc1ccc(SC(F)(F)F)cc1` [TOLTRAZURIL], the results for the IC50 cell viability with HCT116 [1] (ICRF193 0 nM) and in the assay with HCT116 [1] (ICRF193 200 nM) were greater than 45.8 µM and 20.6 µM, respectively. The efficacy with HCT116 [2] (ICRF193 200 nM) amounted to 41.6%.
